According to PubChem BioAssay (NCI):
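Cultured in 96-well plates, cells were exposed to test compound for 48 hours across five concentrations. TGI is the concentration that stops growth completely.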

Legend:
Test in all cases: NCI anticancer screen, dose series, 48 h
[1] = system: PC-3 prostate
[2] = system: HCC-2998 colon
[3] = system: SF-295 CNS
[4] = system: OVCAR-4 ovarian
[5] = system: SNB-19 CNS
[6] = system: HCT-116 colon
[7] = system: EKVX NSCLC
[8] = system: A549 NSCLC
[9] = system: KM12 colon
[10] = system: SK-MEL-28 melanoma
[11] = system: ACHN renal
[12] = system: HL-60(TB) leukemia
[13] = system: SF-268 CNS
[14] = system: SR leukemia
[15] = system: SK-MEL-5 melanoma
[16] = system: HOP-92 NSCLC
[17] = system: T-47D breast
[18] = system: UACC-257 melanoma
[19] = system: RXF 393 renal
[20] = system: CAKI-1 renal
[21] = system: HCT-15 colon
[22] = system: MDA-MB-435
[23] = system: HT29 colon
[24] = system: CCRF-CEM leukemia
[25] = system: NCI-H23 lung
[26] = system: SN12C renal
[27] = system: HOP-62 NSCLC
[28] = system: MALME-3M melanoma
[29] = system: UACC-62 melanoma
[30] = system: COLO 205 colon
[31] = system: NCI/ADR-RES ovarian
[32] = system: MOLT-4 leukemia
[33] = system: LOX IMVI melanoma
[34] = system: U251 CNS
[35] = system: UO-31 renal
[36] = system: OVCAR-3 ovarian
[37] = system: MDA-MB-231 breast
[38] = system: TK-10 renal
[39] = system: NCI-H226 lung
[40] = system: K-562 leukemia
[41] = system: DU-145 prostate
[42] = system: 786-0 renal
[43] = system: NCI-H522 lung
[44] = system: OVCAR-5 ovarian
[45] = system: M14 melanoma
[46] = system: SK-OV-3 ovarian
[47] = system: SW-620 colon
[48] = system: SF-539 CNS
[49] = system: NCI-H460 lung
[50] = system: MDA-N
[51] = system: SK-MEL-2 melanoma
[52] = system: A498 renal
[53] = system: IGROV1 ovarian
[54] = system: RPMI-8226 leukemia
[55] = system: SNB-75 CNS
[56] = system: BT-549 breast
[57] = system: MCF7 breast
[58] = system: OVCAR-8 ovarian
[59] = system: HS 578T breast

CC(=O)Oc1ccc2c(c1)c1c(=O)oc(C)nc1n2Cc1ccccc1
TGI [1]: > 100 µM
TGI [2]: > 100 µM
TGI [3]: > 100 µM
TGI [4]: > 100 µM
TGI [5]: > 100 µM
TGI [6]: > 100 µM
TGI [7]: > 100 µM
TGI [8]: > 100 µM
TGI [9]: > 100 µM
TGI [10]: > 100 µM
TGI [11]: > 100 µM
TGI [12]: > 100 µM
TGI [13]: > 100 µM
TGI [14]: > 100 µM
TGI [15]: > 100 µM
TGI [16]: > 100 µM
TGI [17]: > 100 µM
TGI [18]: > 100 µM
TGI [19]: 68.5 µM
TGI [20]: 34.4 µM
TGI [21]: > 100 µM
TGI [22]: 99.4 µM
TGI [23]: > 100 µM
TGI [24]: > 100 µM
TGI [25]: > 100 µM
TGI [26]: > 100 µM
TGI [27]: > 100 µM
TGI [28]: > 100 µM
TGI [29]: > 31.6 µM
TGI [30]: > 100 µM
TGI [31]: > 100 µM
TGI [32]: > 100 µM
TGI [33]: > 100 µM
TGI [34]: > 100 µM
TGI [35]: 13.8 µM
TGI [36]: > 100 µM
TGI [37]: > 100 µM
TGI [38]: > 91.2 µM
TGI [39]: > 69.7 µM
TGI [40]: > 100 µM
TGI [41]: > 100 µM
TGI [42]: > 100 µM
TGI [43]: 60.5 µM
TGI [44]: > 100 µM
TGI [45]: > 100 µM
TGI [46]: 98.6 µM
TGI [47]: > 100 µM
TGI [48]: > 100 µM
TGI [49]: > 100 µM
TGI [50]: > 88.1 µM
TGI [51]: > 71.6 µM
TGI [52]: > 74.6 µM
TGI [53]: > 100 µM
TGI [54]: > 100 µM
TGI [55]: > 87.7 µM
TGI [56]: > 66.3 µM
TGI [57]: > 100 µM
TGI [58]: > 100 µM
TGI [59]: > 100 µM

O=C1C=CC(=O)c2c1ccc1c3ccccc3n(-c3cccc([N+](=O)[O-])c3)c21
TGI [1]: > 10 µM
TGI [2]: > 10 µM
TGI [3]: > 10 µM
TGI [4]: > 5.95 µM
TGI [5]: > 10 µM
TGI [6]: 3.91 µM
TGI [7]: > 9.51 µM
TGI [8]: > 10 µM
TGI [9]: > 10 µM
TGI [10]: > 6.36 µM
TGI [11]: 3.36 µM
TGI [12]: 1.29 µM
TGI [13]: > 10 µM
TGI [14]: 0.961 µM
TGI [15]: > 10 µM
TGI [16]: 4.05 µM
TGI [17]: 5.67 µM
TGI [18]: 7.38 µM
TGI [19]: 4.48 µM
TGI [20]: 5.48 µM
TGI [21]: 7.09 µM
TGI [22]: 4.37 µM
TGI [23]: > 10 µM
TGI [24]: 0.82 µM
TGI [25]: 6.57 µM
TGI [26]: > 10 µM
TGI [27]: > 10 µM
TGI [28]: 4 µM
TGI [29]: > 3.16 µM
TGI [30]: 3.21 µM
TGI [31]: > 10 µM
TGI [32]: 1.07 µM
TGI [33]: > 10 µM
TGI [34]: > 10 µM
TGI [35]: > 10 µM
TGI [36]: 4.57 µM
TGI [37]: 5.81 µM
TGI [38]: 4.47 µM
TGI [39]: > 10 µM
TGI [40]: 1.45 µM
TGI [41]: > 10 µM
TGI [42]: 3.58 µM
TGI [43]: 3.57 µM
TGI [44]: > 10 µM
TGI [45]: 3.86 µM
TGI [46]: > 10 µM
TGI [47]: 2.79 µM
TGI [48]: > 6.82 µM
TGI [49]: > 10 µM
TGI [50]: 4.82 µM
TGI [51]: > 10 µM
TGI [52]: > 10 µM
TGI [53]: > 10 µM
TGI [54]: 3.9 µM
TGI [55]: > 10 µM
TGI [56]: 3.31 µM
TGI [57]: > 5.93 µM
TGI [58]: > 8.25 µM
TGI [59]: > 10 µM
